Patent publication US20120197004A1, “NOVEL ANTI-MICROBIAL PEPTIDOMIMETIC COMPOUNDS AND METHODS TO CALCULATE ANTI-MICROBIAL ACTIVITY” (priority 2006, published 2012)
In brackets after ≈: the same amount, converted by molar mass. Where two headings read alike, the source gives them in different places. Where a SMILES comes first, the peptide text is derived from it. [ ]: non-standard residue; d: D form. ξ: configuration not given here. Phe(4-F) = N[C@@H](Cc1ccc(F)cc1)C(=O)O; ξTic = O=C(O)C1Cc2ccccc2CN1; ξOic = O=C(O)C1CC2CCCCC2N1; GABA = NCCCC(=O)O

What was measured:
[1] = Metabolic stability, human liver microsomes; conditions: for % remaining at time T, Human Liver: 0.5 mg/mL microsomes
[2] = Metabolic stability, mouse liver microsomes
[3] = tested on: Mycobacterium ranae (ATCC 110); conditions: ATCC 110
[4] = Metabolic stability, rat liver microsomes
red blood cells [5] = test: Hemolytic studies; conditions: for % hemolysis / Hemolytic activity: concentration not given
[6] = tested on: Salmonella typhimurium (ATCC 13311); conditions: ATCC 13311
[7] = tested on: Bacillus subtillis (ATCC 43223); conditions: ATCC 43223
[8] = Metabolic stability, monkey liver microsomes
[9] = tested on: Staphylococcus aureus Methicillin/Gentamicin/Tetracycline Resistant (ATCC 33592); conditions: for Minimum Inhibitory Concentration Staphylococcus aureus ME/GM/TC resistant: in vitro MIC, tested at 100, 30, 10, 3, 1, 0.3 and 0.1 μM in 1% DMSO
[10] = Metabolic stability, dog liver microsomes
in vitro [11] = conditions: dog, microsomes, pH 7.4
B. melitensis 16M = conditions: in vitro MIC
F. tularensis SCHU-S4 = conditions: in vitro MIC
in vitro [12] = conditions: monkey, microsomes, pH 7.4
red blood cells [13] = conditions: 100 μM
in vitro [14] = conditions: mouse, microsomes, pH 7.4
in vitro [15] = conditions: human, microsomes, pH 7.4
Plague CO92 = conditions: in vitro MIC
Bacillus anthracis Ames = conditions: in vitro MIC
in vitro [16] = conditions: rat, microsomes, pH 7.4
[17] = liver microsomes, 1 μM, T = 60 min
[18] = Minimal Inhibitory Concentration, tested at 100-0.1 in 1% DMSO

CC(=O)NCCCC(=O)N[C@@H](Cc1ccccc1)C(=O)N1Cc2ccccc2CC1C(=O)N1C(C(=O)NCCCC(=O)N[C@@H](CCCCN)C(=O)N2Cc3ccccc3CC2C(=O)N2C(C(=O)NCCCC(=O)N[C@@H](Cc3ccccc3)C(=O)N3Cc4ccccc4CC3C(=O)N3C(C(=O)NCCCC(=O)N[C@@H](CCCCN)C(=O)N4Cc5ccccc5CC4C(=O)N[C@@H](CCCCN)C(=O)N[C@@H](CCCCN)C(=O)N[C@@H](CCCCN)C(=O)N[C@@H](CCCCN)C(N)=O)CC4CCCCC43)CC3CCCCC32)CC2CCCCC21 (stereo partly drawn) [FKAB-1Gd, Ac-Gaba-F-Tic-Oic-Gaba-K-Tic-Oic-Gaba-F-Tic-Oic-Gaba-K-Tic-KKKK-CONH2] (Ac-[GABA]F[ξTic][ξOic][GABA]K[ξTic][ξOic][GABA]F[ξTic][ξOic][GABA]K[ξTic]KKKK-NH2)
remaining at 0.25 h, 1 μM ([1]; human, microsomes, pH 7.4): 106%
metabolic stability T = 60 min human [1, 17]: high
% remaining at time T, Human Liver ([1]; second human column (T = 30 min, head not given), 1 μM): 94%
% remaining at time T, Human Liver ([1]; third human column (T = 60 min, head not given), 1 μM): 114%
metabolic stability T = 60 min mouse [2, 17]: very low
remaining at 0.25 h, 1 μM ([2]; mouse, microsomes, pH 7.4): 90%
remaining at 0.5 h, 1 μM ([2]; mouse, microsomes, pH 7.4): 7%
remaining at 1 h, 1 μM ([2]; mouse, microsomes, pH 7.4): 9%
MIC Mycobacterium ranae [3]: 10.00 µM (≈ 25.5 µg/mL)
Minimum Inhibitory Concentration Mycobacterium ranae [3]: 10 µM
metabolic stability T = 60 min rat [4, 17]: high
remaining at 0.25 h, 1 μM ([4]; rat, microsomes, pH 7.4): 67%
remaining at 0.5 h, 1 μM ([4]; rat, microsomes, pH 7.4): 78%
remaining at 1 h, 1 μM ([4]; rat, microsomes, pH 7.4): 83%
% hemolysis 100/25 μM (first value) (red blood cells [5]; 100 μM): 10.8%/
MIC Salmonella typhimurium [6]: 10 µM (≈ 25.5 µg/mL)
MIC Bacillus Subtillis [7]: 1.00 µM (≈ 2.55 µg/mL)
metabolic stability T = 60 min monkey [8, 17]: high
remaining at 0.25 h, 1 μM ([8]; monkey, microsomes, pH 7.4): 16%
remaining at 0.5 h, 1 μM ([8]; monkey, microsomes, pH 7.4): 25%
remaining at 1 h, 1 μM ([8]; monkey, microsomes, pH 7.4): 76%
MIC Staphylococcus aureus ME/GM/TC resistant ([9]; ATCC 33592): 100.00 µM (≈ 255 µg/mL)
% remaining, Dog Liver T = 15 ([10]; T = 15 min, 1 μM, 0.5 mg/mL microsomes): 35%
remaining at 0.5 h, 1 μM ([10]; dog, microsomes, pH 7.4): 34%
remaining at 1 h, 1 μM ([10]; dog, microsomes, pH 7.4): 55%
metabolic stability T = 60 min dog [10, 17]: High

CC(C)C[C@H](NC(=O)[C@@H](N)CCCCN)C(=O)N1Cc2ccccc2CC1C(=O)N1C(C(=O)N[C@@H](CCCCN)C(=O)N2Cc3ccccc3CC2C(=O)N2C(C(=O)N[C@@H](Cc3ccccc3)C(=O)N3Cc4ccccc4CC3C(=O)N3C(C(=O)N[C@@H](CCCCN)C(=O)N4Cc5ccccc5CC4C(=O)N4C(C(=O)N[C@@H](Cc5ccccc5)C(=O)N5Cc6ccccc6CC5C(=O)N5C(C(=O)N[C@@H](CCCCN)C(=O)N6Cc7ccccc7CC6C(=O)N6C(C(=O)N[C@@H](CCCCN)C(=O)N[C@@H](CCCNC(=N)N)C(N)=O)CC7CCCCC76)CC6CCCCC65)CC5CCCCC54)CC4CCCCC43)CC3CCCCC32)CC2CCCCC21 (stereo partly drawn) [FKAB-1F, NH2-KL-Tic-Oic-K-Tic-Oic-F-Tic-Oic-K-Tic-Oic-F-Tic-Oic-K-Tic-Oic-KR-CONH2] (H-KL[ξTic][ξOic]K[ξTic][ξOic]F[ξTic][ξOic]K[ξTic][ξOic]F[ξTic][ξOic]K[ξTic][ξOic]KR-NH2)
remaining at 0.5 h, 1 μM (in vitro [11]): 27%
remaining at 1 h, 1 μM (in vitro [11]): 8%
Minimum Inhibitory Concentration B. melitensis 16M (B. melitensis 16M): >500 µg/mL
Minimum Inhibitory Concentration F. tularensis SCHU-S4 (F. tularensis SCHU-S4): >500 µg/mL
MIC Mycobacterium ranae [3]: 30.00 µM (≈ 92.5 µg/mL)
Minimum Inhibitory Concentration Mycobacterium ranae [3]: 30 µM
remaining at 0.25 h, 1 μM (in vitro [12]): 28%
remaining at 0.5 h, 1 μM (in vitro [12]): 29%
remaining at 1 h, 1 μM (in vitro [12]): 9%
% hemolysis 100/25 μM (first value) (red blood cells [13]): 63%
remaining at 0.5 h, 1 μM (in vitro [14]): 45%
remaining at 1 h, 1 μM (in vitro [14]): 22%
remaining at 0.25 h, 1 μM (in vitro [15]): 99%
Minimum Inhibitory Concentration Plague CO92 (Plague CO92; listed as 24): >500 µg/mL
MIC Bacillus Subtillis [7]: 1.00 µM (≈ 3.08 µg/mL)
MIC Staphylococcus aureus ME/GM/TC resistant [9, 18]: 10.00 µM (≈ 30.8 µg/mL)
Minimum Inhibitory Concentration Staphylococcus aureus ME/GM/TC resistant [9]: 10 µM
Minimum Inhibitory Concentration Bacillus anthracis Ames (Bacillus anthracis Ames; listed as 24): 0.98 µg/mL
remaining at 0.25 h, 1 μM (in vitro [16]): 113%
remaining at 0.5 h, 1 μM (in vitro [16]): 120%

CC(=O)NCC(=O)N[C@@H](Cc1ccccc1)C(=O)N1Cc2ccccc2CC1C(=O)N1C(C(=O)NCC(=O)N[C@@H](CCCCN)C(=O)N2Cc3ccccc3CC2C(=O)N2C(C(=O)NCC(=O)N[C@@H](Cc3ccccc3)C(=O)N3Cc4ccccc4CC3C(=O)N3C(C(=O)NCC(=O)N[C@@H](CCCCN)C(=O)N4Cc5ccccc5CC4C(=O)N[C@@H](CCCCN)C(=O)N[C@@H](CCCCN)C(=O)N[C@@H](CCCCN)C(=O)N[C@@H](CCCCN)C(N)=O)CC4CCCCC43)CC3CCCCC32)CC2CCCCC21 (stereo partly drawn) [FKAB-1G, Ac-GF-Tic-Oic-GK-Tic-Oic-GF-Tic-Oic-GK-Tic-KKKK-CONH2] (Ac-GF[ξTic][ξOic]GK[ξTic][ξOic]GF[ξTic][ξOic]GK[ξTic]KKKK-NH2)
remaining at 0.5 h, 1 μM (in vitro [11]): 50%
remaining at 1 h, 1 μM (in vitro [11]): 63%
MIC Mycobacterium ranae [3]: 10.00 µM (≈ 24.4 µg/mL)
remaining at 0.25 h, 1 μM (in vitro [12]): 55%
remaining at 0.5 h, 1 μM (in vitro [12]): 73%
remaining at 1 h, 1 μM (in vitro [12]): 91%
% hemolysis 100/25 μM (first value) (red blood cells [13]): 14%
% hemolysis / Hemolytic activity (red blood cells [5]): 14%
% hemolysis / Hemolytic activity (red blood cells [5]; listed as 25): 14%
remaining at 0.25 h, 1 μM (in vitro [14]): 80%
remaining at 0.5 h, 1 μM (in vitro [14]): 10%
remaining at 1 h, 1 μM (in vitro [14]): 12%
MIC Salmonella typhimurium [6]: 10 µM (≈ 24.4 µg/mL)
MIC Bacillus Subtillis [7]: 1.00 µM (≈ 2.44 µg/mL)
MIC Staphylococcus aureus ME/GM/TC resistant [9, 18]: 3.00 µM (≈ 7.32 µg/mL)
Minimum Inhibitory Concentration Staphylococcus aureus ME/GM/TC resistant [9]: 3 µM
remaining at 0.25 h, 1 μM (in vitro [16]): 71%
remaining at 0.5 h, 1 μM (in vitro [16]): 79%
remaining at 1 h, 1 μM (in vitro [16]): 90%

CC(=O)NCC(=O)N[C@@H](Cc1ccc(F)cc1)C(=O)N1Cc2ccccc2CC1C(=O)N1C(C(=O)NCC(=O)N[C@@H](CCCCN)C(=O)N2Cc3ccccc3CC2C(=O)N2C(C(=O)NCC(=O)N[C@@H](Cc3ccc(F)cc3)C(=O)N3Cc4ccccc4CC3C(=O)N3C(C(=O)NCC(=O)N[C@@H](CCCCN)C(=O)N4Cc5ccccc5CC4C(=O)N[C@@H](CCCCN)C(=O)N[C@@H](CCCCN)C(=O)N[C@@H](CCCCN)C(=O)N[C@@H](CCCCN)C(N)=O)CC4CCCCC43)CC3CCCCC32)CC2CCCCC21 (stereo partly drawn) [FKAB-1Go, Ac-G-Fpa-Tic-Oic-GK-Tic-Oic-G-Fpa-Tic-Oic-GK-Tic-KKKK-CONH2] (Ac-G[Phe(4-F)][ξTic][ξOic]GK[ξTic][ξOic]G[Phe(4-F)][ξTic][ξOic]GK[ξTic]KKKK-NH2)
remaining at 0.5 h, 1 μM (in vitro [11]): 54%
remaining at 1 h, 1 μM (in vitro [11]): 59%
Minimum Inhibitory Concentration B. melitensis 16M (B. melitensis 16M): >500 µg/mL
Minimum Inhibitory Concentration F. tularensis SCHU-S4 (F. tularensis SCHU-S4): 250 µg/mL
MIC Mycobacterium ranae [3]: 3.00 µM (≈ 7.43 µg/mL)
Minimum Inhibitory Concentration Mycobacterium ranae [3]: 3 µM
remaining at 0.25 h, 1 μM (in vitro [12]): 57%
remaining at 0.5 h, 1 μM (in vitro [12]): 65%
remaining at 1 h, 1 μM (in vitro [12]): 94%
remaining at 0.25 h, 1 μM (in vitro [14]): 81%
remaining at 0.5 h, 1 μM (in vitro [14]): 26%
remaining at 1 h, 1 μM (in vitro [14]): 22%
MIC Salmonella typhimurium [6]: 30 µM (≈ 74.3 µg/mL)
Minimum Inhibitory Concentration Salmonella typhimurium [6]: 30 µM
remaining at 0.25 h, 1 μM (in vitro [15]): 103%
Minimum Inhibitory Concentration Plague CO92 (Plague CO92; listed as 44): 31.25 µg/mL
MIC Bacillus Subtillis [7]: 0.30 µM (≈ 0.743 µg/mL)
Minimum Inhibitory Concentration Bacillus subtillis [7]: 0.3 µM
MIC Staphylococcus aureus ME/GM/TC resistant [9, 18]: 10.00 µM (≈ 24.8 µg/mL)
Minimum Inhibitory Concentration Staphylococcus aureus ME/GM/TC resistant [9]: 10 µM
Minimum Inhibitory Concentration Bacillus anthracis Ames (Bacillus anthracis Ames; listed as 44): 0.98 µg/mL
remaining at 0.25 h, 1 μM (in vitro [16]): 74%
remaining at 0.5 h, 1 μM (in vitro [16]): 57%
remaining at 1 h, 1 μM (in vitro [16]): 75%
